Results published in publication PMC9329436, “Optimization of the 4-anilinoquin(az)oline scaffold as epidermal growth factor receptor (EGFR) inhibitors for chordoma utilizing a toxicology profiling assay platform” (Scientific Reports, 2022).
Read-outs that look alike come from different tables or passages of the source.

Legend:
Type in all cases: biochemical
[1] = biological target: 320 wild-type protein kinases (Homo sapiens, UniProt Q9UIK4); settings: singlicate
From the text: (§1) Table S4. Profiling of two compounds at two concentrations against 320 wild-type protein kinases; singlicate measurement; Residual activities (% of control).

[2] = biological target: T1, 320 wild-type protein kinases (Homo sapiens, UniProt Q9UL54); settings: kinase TAOK2, singlicate
T1 sequence (Q9UL54 1-1235): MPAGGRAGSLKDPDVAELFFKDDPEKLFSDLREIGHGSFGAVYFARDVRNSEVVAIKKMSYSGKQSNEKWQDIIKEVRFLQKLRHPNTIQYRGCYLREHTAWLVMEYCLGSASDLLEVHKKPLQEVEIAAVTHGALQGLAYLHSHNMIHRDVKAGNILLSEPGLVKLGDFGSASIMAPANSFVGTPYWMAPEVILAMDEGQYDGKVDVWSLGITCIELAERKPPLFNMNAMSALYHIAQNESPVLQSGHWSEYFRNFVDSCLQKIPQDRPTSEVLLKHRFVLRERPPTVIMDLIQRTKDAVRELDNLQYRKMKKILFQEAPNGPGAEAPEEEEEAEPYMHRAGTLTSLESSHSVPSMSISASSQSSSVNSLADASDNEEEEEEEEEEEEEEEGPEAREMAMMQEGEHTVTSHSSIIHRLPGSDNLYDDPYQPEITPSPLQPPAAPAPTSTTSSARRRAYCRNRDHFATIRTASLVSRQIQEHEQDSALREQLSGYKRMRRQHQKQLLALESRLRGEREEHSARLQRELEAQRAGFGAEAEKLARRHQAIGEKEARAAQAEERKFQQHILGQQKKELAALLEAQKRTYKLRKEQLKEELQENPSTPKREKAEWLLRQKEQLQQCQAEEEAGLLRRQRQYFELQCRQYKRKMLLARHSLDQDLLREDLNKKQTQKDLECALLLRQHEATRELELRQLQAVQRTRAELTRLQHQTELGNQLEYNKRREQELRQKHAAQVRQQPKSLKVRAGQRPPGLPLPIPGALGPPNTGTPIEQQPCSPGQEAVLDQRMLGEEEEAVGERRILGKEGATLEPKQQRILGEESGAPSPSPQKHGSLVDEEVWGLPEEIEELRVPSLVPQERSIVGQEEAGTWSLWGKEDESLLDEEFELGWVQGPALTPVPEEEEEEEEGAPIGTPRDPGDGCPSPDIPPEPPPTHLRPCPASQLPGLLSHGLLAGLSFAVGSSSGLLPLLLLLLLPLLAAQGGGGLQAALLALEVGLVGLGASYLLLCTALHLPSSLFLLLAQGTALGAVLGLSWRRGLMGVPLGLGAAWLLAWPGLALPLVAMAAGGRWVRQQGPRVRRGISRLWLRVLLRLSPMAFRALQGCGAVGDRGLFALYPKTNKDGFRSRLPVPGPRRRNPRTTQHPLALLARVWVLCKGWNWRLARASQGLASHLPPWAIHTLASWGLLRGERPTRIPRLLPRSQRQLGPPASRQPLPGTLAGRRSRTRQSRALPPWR
From the text: as §1

[3] = biological target: 320 wild-type protein kinases (Homo sapiens, UniProt P41279); settings: COT, singlicate
From the text: as §1

[4] = biological target: 320 wild-type protein kinases (Homo sapiens, UniProt Q9Y243); settings: singlicate
From the text: as §1

[5] = biological target: 320 wild-type protein kinases (Homo sapiens, UniProt P35916); settings: kinase VEGF-R3, singlicate
From the text: as §1

[6] = biological target: 320 wild-type protein kinases (Homo sapiens, UniProt Q8N568); settings: singlicate
From the text: as §1

[7] = biological target: 320 wild-type protein kinases (Homo sapiens, UniProt Q9UM73); settings: ALK (GST-HIS-tag), singlicate
From the text: as §1

[8] = biological target: T2, 320 wild-type protein kinases (Homo sapiens, UniProt Q96PF2); settings: kinase TSK2, singlicate
T2 sequence (Q96PF2 1-358): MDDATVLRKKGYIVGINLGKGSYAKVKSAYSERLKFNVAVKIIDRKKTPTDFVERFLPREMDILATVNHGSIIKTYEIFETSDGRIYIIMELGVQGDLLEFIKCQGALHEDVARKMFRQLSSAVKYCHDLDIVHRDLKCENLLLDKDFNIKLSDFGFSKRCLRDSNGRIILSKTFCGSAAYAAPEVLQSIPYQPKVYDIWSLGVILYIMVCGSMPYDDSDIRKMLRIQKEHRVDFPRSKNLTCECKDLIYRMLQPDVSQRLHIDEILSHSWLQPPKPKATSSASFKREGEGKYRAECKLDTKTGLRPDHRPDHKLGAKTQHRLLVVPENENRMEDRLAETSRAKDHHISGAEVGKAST
From the text: as §1

[9] = biological target: 320 wild-type protein kinases (Homo sapiens, UniProt P37023); settings: singlicate
From the text: as §1

[10] = biological target: 320 wild-type protein kinases (Homo sapiens, UniProt P49674); settings: CK1-epsilon, singlicate
From the text: as §1

[11] = biological target: 320 wild-type protein kinases (Homo sapiens, UniProt Q7KZI7); settings: singlicate
From the text: as §1

[12] = biological target: 320 wild-type protein kinases (Homo sapiens, UniProt P06213); settings: INS-R, singlicate
From the text: as §1

[13] = biological target: 320 wild-type protein kinases (Homo sapiens, UniProt P36507); settings: singlicate
From the text: as §1

[14] = biological target: 320 wild-type protein kinases (Homo sapiens, UniProt P51957); settings: singlicate
From the text: as §1

320 wild-type protein kinases (Homo sapiens, UniProt P41279), sequence (P41279 whole entry): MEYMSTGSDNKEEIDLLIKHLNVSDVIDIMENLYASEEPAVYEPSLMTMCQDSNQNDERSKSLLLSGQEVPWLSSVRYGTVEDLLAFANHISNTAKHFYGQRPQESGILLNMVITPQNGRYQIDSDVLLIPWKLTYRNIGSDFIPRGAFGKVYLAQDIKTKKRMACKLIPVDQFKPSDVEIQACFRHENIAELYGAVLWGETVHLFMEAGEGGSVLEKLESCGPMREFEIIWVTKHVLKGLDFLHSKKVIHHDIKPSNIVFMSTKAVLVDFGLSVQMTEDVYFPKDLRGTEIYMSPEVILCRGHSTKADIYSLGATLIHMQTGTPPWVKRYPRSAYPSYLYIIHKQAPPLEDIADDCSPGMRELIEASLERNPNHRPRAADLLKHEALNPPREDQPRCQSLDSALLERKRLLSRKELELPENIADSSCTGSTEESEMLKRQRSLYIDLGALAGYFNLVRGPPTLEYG
320 wild-type protein kinases (Homo sapiens, UniProt Q9UIK4), sequence (Q9UIK4 whole entry): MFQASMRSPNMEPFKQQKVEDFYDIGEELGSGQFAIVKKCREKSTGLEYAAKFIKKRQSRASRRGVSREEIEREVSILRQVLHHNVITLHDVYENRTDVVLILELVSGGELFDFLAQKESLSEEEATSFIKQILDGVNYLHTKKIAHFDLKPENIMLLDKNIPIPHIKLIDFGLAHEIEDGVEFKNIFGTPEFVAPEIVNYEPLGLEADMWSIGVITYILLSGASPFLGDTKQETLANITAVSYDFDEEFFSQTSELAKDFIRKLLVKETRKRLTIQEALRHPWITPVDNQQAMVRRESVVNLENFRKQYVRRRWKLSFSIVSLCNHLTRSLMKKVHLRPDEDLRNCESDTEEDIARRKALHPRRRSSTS
320 wild-type protein kinases (Homo sapiens, UniProt P06213), sequence (P06213 28-1382): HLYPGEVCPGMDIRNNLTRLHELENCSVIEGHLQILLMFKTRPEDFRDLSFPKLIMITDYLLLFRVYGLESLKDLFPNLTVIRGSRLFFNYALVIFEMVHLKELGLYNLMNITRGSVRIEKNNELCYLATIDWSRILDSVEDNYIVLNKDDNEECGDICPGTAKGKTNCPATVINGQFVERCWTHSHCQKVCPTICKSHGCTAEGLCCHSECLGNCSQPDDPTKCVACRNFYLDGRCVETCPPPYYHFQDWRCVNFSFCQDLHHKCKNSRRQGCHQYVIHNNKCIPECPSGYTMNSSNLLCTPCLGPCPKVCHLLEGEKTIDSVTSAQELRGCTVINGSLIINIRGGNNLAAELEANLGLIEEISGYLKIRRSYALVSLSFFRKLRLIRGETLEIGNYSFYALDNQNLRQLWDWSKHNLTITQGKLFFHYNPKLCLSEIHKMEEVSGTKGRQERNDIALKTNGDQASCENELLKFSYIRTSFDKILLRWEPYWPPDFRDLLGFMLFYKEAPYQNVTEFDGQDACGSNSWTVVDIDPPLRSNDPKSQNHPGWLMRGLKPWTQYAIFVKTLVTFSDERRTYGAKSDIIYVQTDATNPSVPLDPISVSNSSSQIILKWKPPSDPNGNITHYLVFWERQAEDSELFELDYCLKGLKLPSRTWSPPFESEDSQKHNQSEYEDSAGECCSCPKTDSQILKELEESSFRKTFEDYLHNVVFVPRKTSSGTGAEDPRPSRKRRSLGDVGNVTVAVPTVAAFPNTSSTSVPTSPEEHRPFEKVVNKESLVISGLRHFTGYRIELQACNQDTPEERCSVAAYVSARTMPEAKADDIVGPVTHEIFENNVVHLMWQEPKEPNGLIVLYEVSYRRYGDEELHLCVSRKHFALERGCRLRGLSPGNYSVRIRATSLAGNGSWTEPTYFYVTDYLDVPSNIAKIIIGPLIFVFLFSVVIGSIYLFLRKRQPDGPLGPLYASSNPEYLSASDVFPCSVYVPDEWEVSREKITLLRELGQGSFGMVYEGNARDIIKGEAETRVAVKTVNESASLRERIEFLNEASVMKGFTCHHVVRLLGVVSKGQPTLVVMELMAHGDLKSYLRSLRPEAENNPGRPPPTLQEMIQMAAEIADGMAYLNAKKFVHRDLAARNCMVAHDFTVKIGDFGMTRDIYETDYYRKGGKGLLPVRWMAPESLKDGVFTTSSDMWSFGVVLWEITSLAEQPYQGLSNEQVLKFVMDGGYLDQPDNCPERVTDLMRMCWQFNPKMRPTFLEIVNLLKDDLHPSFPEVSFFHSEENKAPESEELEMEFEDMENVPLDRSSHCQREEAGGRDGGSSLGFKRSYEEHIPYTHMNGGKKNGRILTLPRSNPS
320 wild-type protein kinases (Homo sapiens, UniProt P51957), sequence (P51957 whole entry): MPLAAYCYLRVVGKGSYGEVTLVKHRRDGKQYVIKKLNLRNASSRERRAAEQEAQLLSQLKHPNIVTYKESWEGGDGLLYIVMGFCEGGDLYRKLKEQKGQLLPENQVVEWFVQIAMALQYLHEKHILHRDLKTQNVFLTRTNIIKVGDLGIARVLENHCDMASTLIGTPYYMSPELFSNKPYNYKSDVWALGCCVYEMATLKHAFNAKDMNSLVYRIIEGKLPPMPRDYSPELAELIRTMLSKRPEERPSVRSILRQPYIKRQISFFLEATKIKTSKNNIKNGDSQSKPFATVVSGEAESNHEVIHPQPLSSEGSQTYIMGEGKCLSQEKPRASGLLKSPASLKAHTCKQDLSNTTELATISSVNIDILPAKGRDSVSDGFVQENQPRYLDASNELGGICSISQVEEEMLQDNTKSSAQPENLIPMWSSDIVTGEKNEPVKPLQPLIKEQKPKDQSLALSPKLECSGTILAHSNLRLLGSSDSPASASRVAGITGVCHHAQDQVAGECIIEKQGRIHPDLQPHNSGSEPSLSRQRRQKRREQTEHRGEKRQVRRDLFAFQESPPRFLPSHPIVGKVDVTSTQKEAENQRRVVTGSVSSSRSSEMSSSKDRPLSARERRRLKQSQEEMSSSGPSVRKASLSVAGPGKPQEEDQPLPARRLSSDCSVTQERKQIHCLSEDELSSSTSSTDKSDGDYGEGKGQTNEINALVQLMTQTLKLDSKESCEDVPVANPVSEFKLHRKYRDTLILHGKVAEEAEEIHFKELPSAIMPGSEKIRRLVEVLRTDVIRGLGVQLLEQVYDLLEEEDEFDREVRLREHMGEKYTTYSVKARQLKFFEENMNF
320 wild-type protein kinases (Homo sapiens, UniProt Q9Y243), sequence (Q9Y243 whole entry): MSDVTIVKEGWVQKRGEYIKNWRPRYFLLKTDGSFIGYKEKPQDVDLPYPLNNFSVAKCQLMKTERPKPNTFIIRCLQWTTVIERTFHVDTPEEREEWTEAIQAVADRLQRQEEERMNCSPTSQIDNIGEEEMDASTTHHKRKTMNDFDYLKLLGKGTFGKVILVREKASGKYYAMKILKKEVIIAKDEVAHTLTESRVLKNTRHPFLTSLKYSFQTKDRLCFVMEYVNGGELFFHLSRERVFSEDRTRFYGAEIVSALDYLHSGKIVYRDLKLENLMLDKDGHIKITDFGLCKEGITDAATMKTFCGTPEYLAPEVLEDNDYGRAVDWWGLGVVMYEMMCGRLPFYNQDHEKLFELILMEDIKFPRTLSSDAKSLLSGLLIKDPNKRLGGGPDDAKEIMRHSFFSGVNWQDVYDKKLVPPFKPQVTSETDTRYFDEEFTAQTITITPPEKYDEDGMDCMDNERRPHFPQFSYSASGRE
320 wild-type protein kinases (Homo sapiens, UniProt P37023), sequence (P37023 22-503): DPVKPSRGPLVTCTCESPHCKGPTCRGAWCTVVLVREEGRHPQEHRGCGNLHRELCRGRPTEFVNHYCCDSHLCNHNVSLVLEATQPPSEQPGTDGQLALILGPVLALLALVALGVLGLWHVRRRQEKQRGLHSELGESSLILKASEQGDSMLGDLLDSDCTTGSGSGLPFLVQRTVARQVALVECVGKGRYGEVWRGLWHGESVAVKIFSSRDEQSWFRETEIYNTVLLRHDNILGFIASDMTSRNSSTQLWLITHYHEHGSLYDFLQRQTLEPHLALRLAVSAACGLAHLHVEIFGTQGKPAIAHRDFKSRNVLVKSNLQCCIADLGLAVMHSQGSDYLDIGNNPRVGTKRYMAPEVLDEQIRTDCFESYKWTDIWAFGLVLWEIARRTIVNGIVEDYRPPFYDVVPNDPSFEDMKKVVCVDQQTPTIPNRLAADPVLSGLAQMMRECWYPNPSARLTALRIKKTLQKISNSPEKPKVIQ
320 wild-type protein kinases (Homo sapiens, UniProt P36507), sequence (P36507 whole entry): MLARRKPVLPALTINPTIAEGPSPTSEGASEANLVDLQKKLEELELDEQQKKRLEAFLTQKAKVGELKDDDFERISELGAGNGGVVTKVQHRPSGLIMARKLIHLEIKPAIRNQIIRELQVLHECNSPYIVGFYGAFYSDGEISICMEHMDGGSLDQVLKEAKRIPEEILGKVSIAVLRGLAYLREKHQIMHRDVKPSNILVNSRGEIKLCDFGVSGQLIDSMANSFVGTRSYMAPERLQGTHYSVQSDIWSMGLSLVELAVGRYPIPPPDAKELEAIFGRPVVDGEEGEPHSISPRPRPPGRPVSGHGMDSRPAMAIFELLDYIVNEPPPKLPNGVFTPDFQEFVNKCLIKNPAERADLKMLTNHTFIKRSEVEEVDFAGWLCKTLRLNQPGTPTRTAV
320 wild-type protein kinases (Homo sapiens, UniProt P49674), sequence (P49674 whole entry): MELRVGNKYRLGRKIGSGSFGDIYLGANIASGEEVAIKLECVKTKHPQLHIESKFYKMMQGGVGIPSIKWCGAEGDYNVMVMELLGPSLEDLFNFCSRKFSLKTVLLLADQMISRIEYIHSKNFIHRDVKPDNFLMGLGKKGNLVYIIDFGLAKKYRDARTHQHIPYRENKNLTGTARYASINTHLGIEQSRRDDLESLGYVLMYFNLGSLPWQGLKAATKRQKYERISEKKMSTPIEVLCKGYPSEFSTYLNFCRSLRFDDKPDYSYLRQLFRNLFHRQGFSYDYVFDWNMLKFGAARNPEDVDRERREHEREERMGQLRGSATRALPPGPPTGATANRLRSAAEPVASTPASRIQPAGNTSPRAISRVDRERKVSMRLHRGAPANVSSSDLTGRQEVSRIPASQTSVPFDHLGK

**Q.** Which Residual activity ([1]; DAPK2, 1.0E-06 M) does the source give for `C#Cc1cc(Nc2ncnc3cc(OC)c(OC)cc23)ccc1Cl` [Compound 45] here?
**A.** 101 % of control

**Q.** And the Residual activity ([1]; DAPK2, 1.0E-07 M)?
**A.** 132 % of control

**Q.** And the “Residual activity, TAOK2” value ([2]; assay conc. 1.0E-06 M)?
**A.** 106 % of control

**Q.** And the “Residual activity, TAOK2” value ([2]; assay conc. 1.0E-07 M)?
**A.** 109 % of control

**Q.** And the Residual activity ([3]; 1.0E-06 M)?
**A.** 123 % of control

**Q.** And the Residual activity ([3]; 1.0E-07 M)?
**A.** 98 % of control

**Q.** And the Residual activity ([4]; AKT3 aa106-479, 1.0E-06 M)?
**A.** 101 % of control

**Q.** What about the Residual activity ([4]; AKT3 aa106-479, 1.0E-07 M) of the same molecule?
**A.** 96 % of control

**Q.** And the “Residual activity, VEGF-R3” value ([5]; assay conc. 1.0E-06 M)?
**A.** 112 % of control

**Q.** What about the “Residual activity, VEGF-R3” value ([5]; assay conc. 1.0E-07 M) of the same molecule?
**A.** 120 % of control

**Q.** And the Residual activity ([6]; DCAMKL2, 1.0E-06 M)?
**A.** 103 % of control

**Q.** And the Residual activity ([6]; DCAMKL2, 1.0E-07 M)?
**A.** 97 % of control

**Q.** And the Residual activity ([7]; 1.0E-06 M)?
**A.** 63 % of control

**Q.** What about the Residual activity ([7]; 1.0E-07 M) of the same molecule?
**A.** 102 % of control

**Q.** And the “Residual activity, TSK2” value ([8]; assay conc. 1.0E-06 M)?
**A.** 331 % of control

**Q.** And the “Residual activity, TSK2” value ([8]; assay conc. 1.0E-07 M)?
**A.** 109 % of control

**Q.** What about the Residual activity ([9]; ACV-RL1, 1.0E-06 M) of the same molecule?
**A.** 106 % of control

**Q.** What about the Residual activity ([9]; ACV-RL1, 1.0E-07 M) of the same molecule?
**A.** 110 % of control

**Q.** What about the Residual activity ([10]; 1.0E-06 M) of the same molecule?
**A.** 120 % of control

**Q.** And the Residual activity ([10]; 1.0E-07 M)?
**A.** 124 % of control

**Q.** What about the Residual activity ([11]; MARK2, 1.0E-06 M) of the same molecule?
**A.** 90 % of control

**Q.** And the Residual activity ([11]; MARK2, 1.0E-07 M)?
**A.** 103 % of control

**Q.** What about the Residual activity ([12]; 1.0E-06 M) of the same molecule?
**A.** 82 % of control

**Q.** What about the Residual activity ([12]; 1.0E-07 M) of the same molecule?
**A.** 97 % of control

**Q.** And the Residual activity ([13]; MEK2, 1.0E-06 M)?
**A.** 105 % of control

**Q.** And the Residual activity ([13]; MEK2, 1.0E-07 M)?
**A.** 102 % of control

**Q.** What about the Residual activity ([14]; NEK4, 1.0E-06 M) of the same molecule?
**A.** 84 % of control

**Q.** What about the Residual activity ([14]; NEK4, 1.0E-07 M) of the same molecule?
**A.** 106 % of control

**Q.** What does the source list for `C#Cc1cc(Nc2ncnc3cc(I)ccc23)ccc1Cl` [Compound 41]?
**A.** Residual activity ([1]; DAPK2, 1.0E-06 M): 118 % of control; Residual activity ([1]; DAPK2, 1.0E-07 M): 113 % of control; Residual activity, TAOK2 ([2]; assay conc. 1.0E-06 M): 96 % of control; Residual activity, TAOK2 ([2]; assay conc. 1.0E-07 M): 110 % of control; Residual activity ([3]; 1.0E-06 M): 91 % of control; Residual activity ([3]; 1.0E-07 M): 91 % of control; Residual activity ([4]; AKT3 aa106-479, 1.0E-06 M): 97 % of control; Residual activity ([4]; AKT3 aa106-479, 1.0E-07 M): 94 % of control; Residual activity, VEGF-R3 ([5]; assay conc. 1.0E-06 M): 119 % of control; Residual activity, VEGF-R3 ([5]; assay conc. 1.0E-07 M): 121 % of control; Residual activity ([6]; DCAMKL2, 1.0E-06 M): 90 % of control; Residual activity ([6]; DCAMKL2, 1.0E-07 M): 87 % of control; Residual activity ([7]; 1.0E-06 M): 93 % of control; Residual activity ([7]; 1.0E-07 M): 102 % of control; Residual activity, TSK2 ([8]; assay conc. 1.0E-06 M): 123 % of control; Residual activity, TSK2 ([8]; assay conc. 1.0E-07 M): 113 % of control; Residual activity ([9]; ACV-RL1, 1.0E-06 M): 105 % of control; Residual activity ([9]; ACV-RL1, 1.0E-07 M): 102 % of control; Residual activity ([10]; 1.0E-06 M): 118 % of control; Residual activity ([10]; 1.0E-07 M): 124 % of control; Residual activity ([11]; MARK2, 1.0E-06 M): 114 % of control; Residual activity ([11]; MARK2, 1.0E-07 M): 104 % of control; Residual activity ([12]; 1.0E-06 M): 96 % of control; Residual activity ([12]; 1.0E-07 M): 105 % of control; Residual activity ([13]; MEK2, 1.0E-06 M): 80 % of control; Residual activity ([13]; MEK2, 1.0E-07 M): 101 % of control; Residual activity ([14]; NEK4, 1.0E-06 M): 94 % of control; Residual activity ([14]; NEK4, 1.0E-07 M): 100 % of control
